Data: PMC7687371, “Quantitative in Vitro to in Vivo Extrapolation (QIVIVE) for Predicting Reduced Anogenital Distance Produced by Anti-Androgenic Pesticides in a Rodent Model for Male Reproductive Disorders” (Environmental Health Perspectives, 2020)
Like-named read-outs stand apart in the source and are kept apart here.

What was measured:
Wistar rats = test: In vivo Study 3 (fludioxonil, cyprodinil, dimethomorph), reproductive/developmental toxicity, AGD; conditions: for AGDI mean: Study 3, male pups
[1] = PBK model simulation of fetal and maternal concentrations; design: species or system rat
Sprague-Dawley rats = test: In vivo Study 4 (dimethomorph follow-up), reproductive/developmental toxicity, AGD
androgen receptor (AR) [2] = biological target: T1, androgen receptor (AR) (Homo sapiens, UniProt P10275); design: method as in Orton et al. (2011); conditions: ref Orton et al. (2011), cited from earlier work
T1 construct: host or cells: AR-EcoScreen cells
T1 sequence (P10275 1-920): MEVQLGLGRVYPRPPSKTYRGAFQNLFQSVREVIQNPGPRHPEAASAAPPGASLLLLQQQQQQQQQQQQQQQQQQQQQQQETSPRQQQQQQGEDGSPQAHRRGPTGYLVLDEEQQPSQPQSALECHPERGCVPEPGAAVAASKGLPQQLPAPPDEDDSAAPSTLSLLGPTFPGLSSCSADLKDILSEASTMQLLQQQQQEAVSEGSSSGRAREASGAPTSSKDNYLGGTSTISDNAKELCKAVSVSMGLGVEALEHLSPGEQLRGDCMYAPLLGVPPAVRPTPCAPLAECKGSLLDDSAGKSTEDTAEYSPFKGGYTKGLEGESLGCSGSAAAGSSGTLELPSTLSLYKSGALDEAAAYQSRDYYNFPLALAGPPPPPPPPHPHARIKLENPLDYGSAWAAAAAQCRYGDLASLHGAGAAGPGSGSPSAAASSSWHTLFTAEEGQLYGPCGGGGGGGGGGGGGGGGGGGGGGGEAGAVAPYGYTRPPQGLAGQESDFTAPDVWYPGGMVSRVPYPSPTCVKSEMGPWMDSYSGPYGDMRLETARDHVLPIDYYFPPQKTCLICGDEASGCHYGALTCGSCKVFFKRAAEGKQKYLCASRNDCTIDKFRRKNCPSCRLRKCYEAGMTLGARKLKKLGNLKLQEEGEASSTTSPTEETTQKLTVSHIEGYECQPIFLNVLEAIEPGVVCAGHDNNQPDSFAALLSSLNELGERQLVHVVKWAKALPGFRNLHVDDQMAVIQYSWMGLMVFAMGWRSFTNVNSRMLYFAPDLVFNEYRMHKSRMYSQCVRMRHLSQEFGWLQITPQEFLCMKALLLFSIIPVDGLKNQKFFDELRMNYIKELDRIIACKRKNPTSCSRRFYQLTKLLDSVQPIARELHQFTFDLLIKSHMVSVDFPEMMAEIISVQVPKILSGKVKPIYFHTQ

androgen receptor (AR) [3] = biological target: T1, androgen receptor (AR); test: AR-EcoScreen androgen receptor transcriptional activation assay (AR antagonism); type: cell-based
Procedure: Experiments were run with three technical replicates and repeated three times. The mean value of technical replicates represents one biological replicate. AR-EcoScreen™ cells (JCRB1328; Japanese Collection of Research Bioresources) were grown in CellBIND® surface cell culture flasks (Corning Inc.) in growth medium consisting of Gibco® Dulbecco’s Modified Eagle’s Medium/F-12 (DMEM/F-12) Nutrient Mixture with L-glutamine and 4-(2-hydroxyethyl)-1-piperazineethanesulfonic acid (HEPES) and without phenol red supplemented with 5% fetal bovine serum (FBS), 1% penicillin-streptomycin, 200μg/mL Zeocin™ selection reagent, and 100μg/mL Hygromycin B (all reagents from Invitrogen, Life Technologies). The cells were incubated at 37°C in a humidified atmosphere of 5% carbon dioxide ( CO2 ) and 95% air. On the day before the experiment, cells were plated in white 96-well plates (Corning Inc.) at a density of 9,000 cells/well in assay medium consisting of Gibco® DMEM/F-12 Nutrient Mixture medium, 1% penicillin-streptomycin, with 5% dextran-coated charcoal-treated FBS (all reagents from Invitrogen, Life Technologies). On the following day, the medium was changed to assay medium containing the known AR agonist R1881 (Perkin Elmer) in 2-fold serial dilutions from 0.008 to 1 nM or the known AR antagonist hydroxyflutamide (CASRN 52806-53-8, Toronto Research Chemicals) in 3-fold serial dilutions from […] together with 0.1 nM R1881. […] The DMSO vehicle concentrations were kept constant in all wells (0.1%). Following approximately 20 h of exposure to test compounds firefly luminescence was measured in a luminometer (LUMIstar® Galaxy, BMG LABTECH) using Dual-Glo® Luciferase Reagent from the Dual-Glo® Luciferase Assay System from Promega. Cell viability was measured by Renilla luminescence using Dual-Glo® Stop & Glo® Reagent from the Dual-Glo® Luciferase Assay System.

N#Cc1c[nH]cc1-c1cccc2c1OC(F)(F)O2 [Fludioxonil, fludioxonil]
% perinatal loss (Wistar rats; 20 mg/kg bw/day): 11.5 ± 11.9% | % postimplantation loss (Wistar rats; 20 mg/kg bw/day): 8.4 ± 10.2% | % postnatal deaths (Wistar rats; 20 mg/kg bw/day): 3.1 ± 9.7% | %males (Wistar rats; 20 mg/kg bw/day): 54.8 ± 15.6% | AGD females (mm) (Wistar rats; 20 mg/kg bw/day): 2.15 ± 0.09 mm | AGD females (units) (Wistar rats; 20 mg/kg bw/day): 13.04 ± 0.5 units | AGD males (mm) (Wistar rats; 20 mg/kg bw/day): 3.84 ± 0.12 mm | AGD males (units) (Wistar rats; 20 mg/kg bw/day): 23.26 ± 0.7 units | Dam bw gain PD 1-14 (Wistar rats; 20 mg/kg bw/day): 33.1 ± 12.7 | Dam bw gain, GD7- PD 1 (Wistar rats; 20 mg/kg bw/day): 23.8 ± 10.5 | Dam bw gain,GD7-21 (Wistar rats; 20 mg/kg bw/day): 92.7 ± 15.8 | Female birth weight (Wistar rats; 20 mg/kg bw/day): 6.21 ± 0.5 | Gestation length (Wistar rats; 20 mg/kg bw/day): 23.0 ± 0.0 days | Litter size (Wistar rats; 20 mg/kg bw/day): 10.5 ± 2.4 | Male birth weight (Wistar rats; 20 mg/kg bw/day): 6.48 ± 0.4 | Male weights PD 23 (Wistar rats; 20 mg/kg bw/day): 48.66 ± 6.1 | Nipple retention females (Wistar rats; 20 mg/kg bw/day): 12.21 ± 0.2 | Nipple retention males (Wistar rats; 20 mg/kg bw/day): 0.04 ± 0.09 | Offspring weight PD 6 (Wistar rats; 20 mg/kg bw/day): 12.98 ± 1.3 | Offspring weight PD 14 (Wistar rats; 20 mg/kg bw/day): 28.07 ± 3.3 | % perinatal loss (Wistar rats; 60 mg/kg bw/day): 18.7 ± 32.5% | % postimplantation loss (Wistar rats; 60 mg/kg bw/day): 15.9 ± 32.1% | % postnatal deaths (Wistar rats; 60 mg/kg bw/day): 3.4 ± 9.6% | %males (Wistar rats; 60 mg/kg bw/day): 47.2 ± 14.5% | AGD females (mm) (Wistar rats; 60 mg/kg bw/day): 2.10 ± 0.11 mm | AGD females (units) (Wistar rats; 60 mg/kg bw/day): 12.70 ± 0.6 units | AGD males (mm) (Wistar rats; 60 mg/kg bw/day): 3.77 ± 0.16 mm | AGD males (units) (Wistar rats; 60 mg/kg bw/day): 22.83 ± 1.0 units | Dam bw gain PD 1-14 (Wistar rats; 60 mg/kg bw/day): 38.1 ± 10.8 | Dam bw gain, GD7- PD 1 (Wistar rats; 60 mg/kg bw/day): 16.8 ± 8.1 | Dam bw gain,GD7-21 (Wistar rats; 60 mg/kg bw/day): 84.8 ± 9.7 | Female birth weight (Wistar rats; 60 mg/kg bw/day): 6.18 ± 0.3 | Gestation length (Wistar rats; 60 mg/kg bw/day): 23.0 ± 0.0 days | Litter size (Wistar rats; 60 mg/kg bw/day): 11.0 ± 1.3 | Male birth weight (Wistar rats; 60 mg/kg bw/day): 6.58 ± 0.4 | Male weights PD 23 (Wistar rats; 60 mg/kg bw/day): 49.78 ± 6.9 | Nipple retention females (Wistar rats; 60 mg/kg bw/day): 12.13 ± 0.2 | Nipple retention males (Wistar rats; 60 mg/kg bw/day): 0.08 ± 0.16 | Offspring weight PD 6 (Wistar rats; 60 mg/kg bw/day): 13.20 ± 1.6 | Offspring weight PD 14 (Wistar rats; 60 mg/kg bw/day): 28.41 ± 4.2 | % perinatal loss (Wistar rats; 180 mg/kg bw/day): 32.3 ± 35.6% | % postimplantation loss (Wistar rats; 180 mg/kg bw/day): 31.4 ± 36.0% | % postnatal deaths (Wistar rats; 180 mg/kg bw/day): 1.1 ± 2.7% | %males (Wistar rats; 180 mg/kg bw/day): 63.0 ± 20.8% | AGD females (mm) (Wistar rats; 180 mg/kg bw/day): 2.15 ± 0.10 mm | AGD females (units) (Wistar rats; 180 mg/kg bw/day): 13.04 ± 0.6 units | AGD males (mm) (Wistar rats; 180 mg/kg bw/day): 3.81 ± 0.18 mm | AGD males (units) (Wistar rats; 180 mg/kg bw/day): 23.11 ± 1.1 units | Dam bw gain PD 1-14 (Wistar rats; 180 mg/kg bw/day): 23.2 ± 15.5 | Dam bw gain, GD7- PD 1 (Wistar rats; 180 mg/kg bw/day): 17.5 ± 14.9 | Dam bw gain,GD7-21 (Wistar rats; 180 mg/kg bw/day): 71.3 ± 20.7 | Female birth weight (Wistar rats; 180 mg/kg bw/day): 6.06 ± 0.5 | Gestation length (Wistar rats; 180 mg/kg bw/day): 22.8 ± 0.75 days | Litter size (Wistar rats; 180 mg/kg bw/day): 8.2 ± 5.0 | Male birth weight (Wistar rats; 180 mg/kg bw/day): 6.51 ± 0.6 | Male weights PD 23 (Wistar rats; 180 mg/kg bw/day): 47.97 ± 5.6 | Nipple retention females (Wistar rats; 180 mg/kg bw/day): 12.41 ± 0.6 | Nipple retention males (Wistar rats; 180 mg/kg bw/day): 0.47 ± 0.78 | Offspring weight PD 6 (Wistar rats; 180 mg/kg bw/day): 12.54 ± 1.9 | Offspring weight PD 14 (Wistar rats; 180 mg/kg bw/day): 26.58 ± 4.1 | Nipple retention at PD14, statistics in words (Wistar rats; Study 3): no statistically significant effects on nipple retention | AGDI mean (Wistar rats; dose 20 mg/kg BW): 2.06 | AGDI mean (Wistar rats; dose 60 mg/kg BW): 2.01 | AGDI mean (Wistar rats; dose 180 mg/kg BW): 2.06 | AGDI reduction (%) (Wistar rats; male offspring, normalized AGDI scale, dose 60 mg/kg BW per day): 13%

COc1ccc(C(=CC(=O)N2CCOCC2)c2ccc(Cl)cc2)cc1OC [Dimethomorph, dimethomorph]
% postnatal deaths (Wistar rats; 20 mg/kg bw/day): 1.4 ± 3.8% | AGD index females (Wistar rats; 20 mg/kg bw/day): 1.12 ± 0.03 | AGD index males (Wistar rats; 20 mg/kg bw/day): 2.01 ± 0.04 | % postnatal deaths (Wistar rats; 60 mg/kg bw/day): 2.6 ± 4.1% | AGD index females (Wistar rats; 60 mg/kg bw/day): 1.18 ± 0.05 | AGD index males (Wistar rats; 60 mg/kg bw/day): 2.15 ± 0.08 | Ratio between observation and prediction (fetal and dams' plasma concentrations) ([1]; GD21 measurements vs PBK simulations): 0.5 to 2 | Predicted maternal plasma level relative to analytically determined concentration ([1]; dams, GD21): approximately one-tenth | % perinatal loss (Sprague-Dawley rats; 20 mg/kg/bw): 3.5 ± 6.3% | % postimplantation loss (Sprague-Dawley rats; 20 mg/kg/bw): 2.6 ± 4.9% | % postnatal deaths (Sprague-Dawley rats; 20 mg/kg/bw): 1.6 ± 3.7% | AGD females (mm) (Sprague-Dawley rats; 20 mg/kg/bw): 2.0 ± 0.1 mm | AGD females (units) (Sprague-Dawley rats; 20 mg/kg/bw): 12.4 ± 0.8 units | AGD index females (Sprague-Dawley rats; 20 mg/kg/bw): 1.1 ± 0.1 | AGD index males (Sprague-Dawley rats; 20 mg/kg/bw): 1.94 ± 0.1 | AGD males (mm) (Sprague-Dawley rats; 20 mg/kg/bw): 3.74 ± 0.2 mm | % perinatal loss (Sprague-Dawley rats; 60 mg/kg/bw): 5.7 ± 6.0% | % postimplantation loss (Sprague-Dawley rats; 60 mg/kg/bw): 4.3 ± 5.2% | % postnatal deaths (Sprague-Dawley rats; 60 mg/kg/bw): 1.4 ± 3.1% | AGD females (mm) (Sprague-Dawley rats; 60 mg/kg/bw): 1.9 ± 0.1 mm | AGD females (units) (Sprague-Dawley rats; 60 mg/kg/bw): 11.8 ± 0.6 units | AGD index females (Sprague-Dawley rats; 60 mg/kg/bw): 1.0 ± 0.0 | AGD index males (Sprague-Dawley rats; 60 mg/kg/bw): 1.87 ± 0.1 | AGD males (mm) (Sprague-Dawley rats; 60 mg/kg/bw): 3.51 ± 0.2 mm | Maternal toxicity (Sprague-Dawley rats; 180 mg/kg per day, increased postimplantation and perinatal loss, higher postnatal death rate): indications for a mild maternal toxicity | % perinatal loss (Sprague-Dawley rats; 180 mg/kg/bw): 13.3 ± 11.8% | % postimplantation loss (Sprague-Dawley rats; 180 mg/kg/bw): 10.1 ± 12.6% | % postnatal deaths (Sprague-Dawley rats; 180 mg/kg/bw): 3.2 ± 7.2% | AGD females (mm) (Sprague-Dawley rats; 180 mg/kg/bw): 2.0 ± 0.2 mm | AGD females (units) (Sprague-Dawley rats; 180 mg/kg/bw): 12.1 ± 0.9 units | AGD index females (Sprague-Dawley rats; 180 mg/kg/bw): 1.1 ± 0.0 | AGD index males (Sprague-Dawley rats; 180 mg/kg/bw): 1.90 ± 0.11 | AGD males (mm) (Sprague-Dawley rats; 180 mg/kg/bw): 3.57 ± 0.2 mm | IC50 (androgen receptor (AR) [2]; read-out: AR antagonism (IC50), MDA-kb2 cells): 900 nM | IC20 (androgen receptor (AR) [2]; read-out: AR antagonism (IC20 µM)): 300 nM

CC12CC1(C)C(=O)N(c1cc(Cl)cc(Cl)c1)C2=O (stereo not drawn) [Procymidone, procymidone, reference compound]
IC50 (androgen receptor (AR) [3]): 400 nM | AR antagonism, in words (androgen receptor (AR) [3]; reporter gene assay): antagonized the AR
